Measurements as given in patent US6811766B1, “Ultrasound imaging with contrast agent targeted to microvasculature and a vasodilator drug” (Amersham Health AS, priority 1997, dated 2004).

Tests used:
[1] = Heart rate under continuous dobutamine infusion; type: in vivo; details: dog, continuous dobutamine infusion 15 μg/kg/min, stable effect; normal 100 beats per minute
Protocol: Example 1 was repeated except that a continuous infusion of dobutamine at a rate of 15 μg/kg/min was administered in place of adenosine. After a stable dobutamine effect consisting of an increase in heart rate from the normal 100 beats per minute to 150 beats per minute was obtained, the microbubble dispersion and the emulsion were intravenously injected from two syringes as a simultaneous bolus. Infusion of dobutamine was continued for another 2 minutes after the contrast agent injection.

[2] = tested on: healthy myocardial tissue; details: adenosine vasodilatation; cited from earlier work

CC(CCc1ccc(O)cc1)NCCc1ccc(O)c(O)c1 (centres unmarked) [dobutamine]
heart rate [1]: 150 beats per minute

Nc1ncnc2c1ncn2[C@@H]1O[C@H](CO)[C@@H](O)[C@H]1O [adenosine]
increase of coronary blood flow in healthy myocardial tissue [2]: more than 400%
